Measured values published in patent publication US20020049223A1, “Quinoline and naphthyridine carboxylic acid antibacterials” (priority 1999, published 2002).

Experiments:
Assay in all cases: Assay B: in vitro antibacterial activity, broth microdilution MIC (NCCLS)
Type in all cases: cell-based
[1] = tested on: Enterococcus faecalis PIU 1967; conditions: Table 2, Assay B, cation-adjusted Mueller Hinton broth, 35° C., 16 to 20 hr; code B = Enterococcus faecalis PIU 1967; unit assumed
Experimental: (§1) Assay B. Determination of Biological Activity In Vitro Assay of Antibacterial Activity
(§2) Representative compounds of the invention were assayed in vitro for antibacterial activity. The susceptibilities of aerobic, nonfastidious species were determined visually by broth microdilution as described by the National Committee for Clinical Laboratory Standards (NCCLS) (National Committee for Clinical Laboratory Standards. 1997. Methods for dilution antimicrobial susceptibility tests for bacteria that grow aerobically. Approved standard M7-A4. National Committee for Clinical Laboratory Standards. Wayne, Pa.). In brief, serial two-fold dilutions of test compounds were made in cation-adjusted Mueller Hinton broth at two-times the final concentration. Inocula were prepared from overnight cultures of test strains. Tests were inoculated with a suspension of bacteria in Mueller Hinton broth to achieve a final density of approximately 5×10^5 CFU/mL. Tests were incubated at 35° C. in ambient air for 16 to 20 hr. Minimum Inhibitory Concentrations (MICs) were determined as the lowest drug concentration completely inhibiting growth. Ciprofloxacin was included as a control. For testing S. pneumoniae, the cation-adjusted Mueller Hinton broth was supplemented with 3% lysed horse blood and the incubation period was extended to 20 to 24 hr. For testing H. influenzae, the cation-adjusted Mueller Hinton broth was supplemented with 5 g/L yeast extract, […] and 15 mg/L NAD and incubation was extended to 20 to 24 hr..

Escherichia coli JUHL = conditions: Table 2, Assay B, cation-adjusted Mueller Hinton broth, 35° C., 16 to 20 hr; code D = Escherichia coli JUHL; unit assumed
Experimental: as §1, §2

[2] = tested on: Haemophilus influenzae DILL AMP R; conditions: Table 2, Assay B, Mueller Hinton broth with yeast extract, hematin and NAD, 20 to 24 hr; code E = Haemophilus influenzae DILL AMP R; unit assumed
Experimental: as §1, §2

[3] = tested on: Staphylococcus aureus ATCC 6538P; conditions: Table 2, Assay B, cation-adjusted Mueller Hinton broth, 35° C., 16 to 20 hr; code A = Staphylococcus aureus ATCC 6538P; unit assumed
Experimental: as §1, §2

[4] = tested on: Streptococcus pneumoniae ATCC 6303; conditions: Table 2, Assay B, Mueller Hinton broth with 3% lysed horse blood, 20 to 24 hr; code F = Streptococcus pneumoniae ATCC 6303; unit assumed
Experimental: as §1, §2

Compound | Antibacterial Activity (MIC's), B [1] [µg/mL] | Antibacterial Activity (MIC's), D (Escherichia coli JUHL) [µg/mL] | Antibacterial Activity (MIC's), E [2] [µg/mL] | Antibacterial Activity (MIC's), A [3] [µg/mL] | Antibacterial Activity (MIC's), F [4] [µg/mL]
Cc1c(-c2cc3c(s2)CCCC3N)c(F)cc2c(=O)c(C(=O)O)cn(C3CC3)c12.Cl (stereo not shown) [Example 321, 7-(4-amino-4,5,6,7-tetrahydro-1-benzothien-2-yl)-1-cyclopropyl-6-fluoro-8-methyl-4-oxo-1,4-dihydroquinoline-3-carboxylic acid hydrochloride] | 0.015 | 0.015 | ≤ 0.004 | ≤ 0.004 | ≤ 0.004
COc1c(-c2cc3c(s2)CCCC3NCc2cccnc2)ccc2c(=O)c(C(=O)O)cn(C3CC3)c12.Cl.Cl (stereo not shown) [Example 94, 1-cyclopropyl-8-methoxy-4-oxo-7-(4-((3-pyridinylmethyl)amino)-4,5,6,7-tetrahydro-1-benzothien-2-yl)-1,4-dihydro-3-quinolinecarboxylic acid dihydrochloride] | 1 | 1 | 0.25 | 0.125 | 0.5
COc1c(-c2cc3c(s2)C(N)CCC3(C)C)ccc2c(=O)c(C(=O)O)cn(C3CC3)c12.Cl (stereo not shown) [Example 222, 7-(7-amino-4,4-dimethyl-4,5,6,7-tetrahydro-1-benzothien-2-yl)-1-cyclopropyl-8-methoxy-4-oxo-1,4-dihydro-3-quinolinecarboxylic acid hydrochloride] | 0.5 | 1 | 0.5 | 0.125 | 0.25
Cc1c(-c2cc3c(s2)C(O)CCC3)c(F)cc2c(=O)c(C(=O)O)cn(C3CC3)c12 (stereo not shown) [Example 369, 1-cyclopropyl-6-fluoro-7-(7-hydroxy-4,5,6,7-tetrahydro-1-benzothien-2-yl)-8-methyl-4-oxo-1,4-dihydroquinoline-3-carboxylic acid] | 0.03 | 0.06 | ≤ 0.004 | ≤ 0.004 | 0.03
COc1c(-c2cc3c(s2)CCCC3=NN(C)C(N)=S)ccc2c(=O)c(C(=O)O)cn(C3CC3)c12 [Example 105, 7-((4E/Z)-4-[(aminocarbothioyl)(methyl)hydrazono)-4,5,6,7-tetrahydro-1-benzothien-2-yl)-1-cyclopropyl-8-methoxy-4-oxo-1 4-dihydro-3-quinolinecarboxylic acid] | 0.25 | 1 | 0.06 | 0.03 | 0.03
COc1c(-c2cc3c(s2)C(N)C(C)(C)CC3)c(F)cc2c(=O)c(C(=O)O)cn(C3CC3)c12.Cl (stereo not shown) [Example 348, 7-(7-amino-6,6-dimethyl-4,5,6,7-tetrahydro-1-benzothien-2-yl)-1-cyclopropyl-6-fluoro-8-methoxy-4-oxo-1,4-dihydroquinoline-3-carboxylic acid hydrochloride] | 0.125 | 0.25 | 0.06 | 0.015 | 0.03
COc1c(-c2cc3c(s2)S(=O)(=O)N(C)CC3O)ccc2c(=O)c(C(=O)O)cn(C3CC3)c12 (stereo not shown) [Example 102, 1-cyclopropyl-7-(4-hydroxy-2-methyl-1,1-dioxido-3,4-dihydro-2H-thieno[3,2-e][1,2]thiazin-6-yl)-8-methoxy-4-oxo-1,4-dihydro-3-quinolinecarboxylic acid] | 1 | 8 | 0.03 | 0.25 | 0.5
Cl.NC1CCCc2cc(-c3cc4c(cc3F)c(=O)c(C(=O)O)cn4C3CC3)sc21 (stereo not shown) [Example 310, 7-(7-amino-4,5,6,7-tetrahydro-1-benzothien-2-yl)-1-cyclopropyl-6-fluoro-4-oxo-1,4-dihydroquinoline-3-carboxylic acid hydrochloride] | 0.015 | 0.015 | 0.015 | 0.008 | 0.008

Second part, the compound after the results:

Antibacterial Activity (MIC's), B [1] [µg/mL] | Antibacterial Activity (MIC's), D (Escherichia coli JUHL) [µg/mL] | Antibacterial Activity (MIC's), E [2] [µg/mL] | Antibacterial Activity (MIC's), A [3] [µg/mL] | Antibacterial Activity (MIC's), F [4] [µg/mL] | Compound
1 | 8 | 1 | 0.03 | 0.5 | COc1c(-c2cc3c(s2)CC(=O)CC3)ccc2c(=O)c(C(=O)O)cn(C3CC3)c12 [Example 59, 1-cyclopropyl-8-methoxy-4-oxo-7-(6-oxo-4,5,6,7-tetrahydro-1-benzothien-2-yl)-1,4-dihydro-3-quinolinecarboxylic acid]
0.06 | 0.25 | 0.015 | 0.004 | 0.06 | COc1c(-c2cc3c(s2)CCC(Br)C3=O)ccc2c(=O)c(C(=O)O)cn(C3CC3)c12 (stereo not shown) [Example 58, 7-(5-bromo-4-oxo-4,5,6,7-tetrahydro-1-benzothien-2-yl)-1-cyclopropyl-8-methoxy-4-oxo-1,4-dihydro-3-quinolinecarboxylic acid]
0.5 | 1 | 0.125 | 0.5 | 0.25 | COc1c(-c2cc3c(s2)CNCC3N)ccc2c(=O)c(C(=O)O)cn(C3CC3)c12 (stereo not shown) [Example 225, 7-(4-amino-4,5,6,7-tetrahydrothieno[2,3-c]pyridin-2-yl)-1-cyclopropyl-8-methoxy-4-oxo-1,4-dihydro-3-quinolinecarboxylic acid]
0.25 | 1 | 0.125 | 0.015 | 0.125 | COc1c(-c2cc3c(s2)CCCC3NS(C)(=O)=O)ccc2c(=O)c(C(=O)O)cn(C3CC3)c12 (stereo not shown) [Example 88, 1-cyclopropyl-8-methoxy-7-(4-((methylsulfonyl)amino)-4,5,6,7-tetrahydro-1-benzothien-2-yl)-4-oxo-1,4-dihydro-3-quinolinecarboxylic acid]
0.5 | 0.25 | 0.03 | 0.125 | 0.25 | COc1c(-c2cc3c(s2)CNCC3O)ccc2c(=O)c(C(=O)O)cn(C3CC3)c12 (stereo not shown) [Example 209, 1-cyclopropyl-7-(4-hydroxy-4,5,6,7-tetrahydrothieno[2,3-c]pyridin-2-yl)-8-methoxy-4-oxo-1,4-dihydro-3-quinolinecarboxylic acid]
0.06 | 0.06 | 0.03 | 0.015 | 0.03 | COc1c(-c2cc3c(s2)CCC(N)C3)ccc2c(=O)c(C(=O)O)cn(C3CC3)c12.Cl (stereo not shown) [Example 76, 7-(5-amino-4,5,6,7-tetrahydro-1-benzothien-2-yl)-1-cyclopropyl-8-methoxy-4-oxo-1,4-dihydro-3-quinolinecarboxylic acid hydrochloride]
0.03 | 0.125 | ≤ 0.004 | ≤ 0.004 | 0.125 | COc1c(-c2cc3c(s2)CCC(F)(F)C3O)ccc2c(=O)c(C(=O)O)cn(C3CC3)c12 (stereo not shown) [Example 204, 1-cyclopropyl-7-(5,5-difluoro-4-hydroxy-4,5,6,7-tetrahydro-1-benzothien-2-yl)-8-methoxy-4-oxo-1,4-dihydro-3-quinolinecarboxylic acid]
0.06 | 0.5 | 0.03 | 0.004 | 1 | COc1c(-c2cc3c(s2)C(O)C(F)CC3)ccc2c(=O)c(C(=O)O)cn(C3CC3)c12 (stereo not shown) [Example 240, 1-cyclopropyl-7-(6-fluoro-7-hydroxy-4,5,6,7-tetrahydro-1-benzothien-2-yl)-8-methoxy-4-oxo-1,4-dihydro-3-quinolinecarboxylic acid]
0.25 | 2 | 0.125 | 0.03 | 0.125 | COc1c(-c2cc3c(s2)C(=O)CCC3)ccc2c(=O)c(C(=O)O)cn(C3CC3)c12 [Example 61, 1-cyclopropyl-8-methoxy-4-oxo-7-(7-oxo-4,5,6,7-tetrahydro-1-benzothien-2-yl)-1,4-dihydro-3-quinolinecarboxylic acid]
